Measurements taken from patent US8609681B2, “Spirocyclic nitriles as protease inhibitors” (Sanofi, priority 2006, dated 2013).

Key:
Type in all cases: biochemical
Details in all cases: Ki from IC50 by Cheng-Prusoff equation
[1] = biological target: catalytic domain of human Cathepsin K (Homo sapiens (Human), UniProt P43235); test: Enzymatic activity of the catalytic domain of human Cathepsin K (fluorogenic substrate Boc-Ala-Gly-Pro-Arg-AMC)
Method: (§1) The enzyme is activated as follows:
1 part by volume of enzyme is admixed with 4 parts by volume of cysteine solution and diluted with the acetate/Hepes buffer to a concentration of 0.22 μg/ml.
(§2) To measure the enzyme activity, 10 μl of enzyme solution are incubated with 10 μl of a 3% (v/v) aqueous dimethyl sulfoxide solution (reaction 1) for 10 minutes. To measure the enzyme inhibitor activity, 10 μl of enzyme solution are incubated with 10 μl of a 3% (v/v) aqueous dimethyl sulfoxide solution which contains the enzyme inhibitor (reaction 2).
(§3) Both in reaction 1 and in reaction 2, after addition of 10 μl of a 3% (v/v) aqueous dimethyl sulfoxide solution which contains 0.3 mmol/l of the substrate, the enzyme reaction is monitored by fluorescence spectroscopy (360 nm (excitation)/465 nm (emission)).
(§4) The enzyme activity is shown as fluorescence increase/minute.
(§5) The inhibitor action is calculated as the percentage inhibition by the following formula: % inhibition=100−[(fluorescence increase/minute in reaction 2)/(fluorescence increase/minute in reaction 1)×100].
(§6) The IC50, which is the inhibitor concentration required for a 50% inhibition in the enzyme activity, is determined graphically by plotting the percentage inhibitions at different inhibitor concentrations.
(§7) The cysteine solution contains 0.3 mol/l of cysteine in water. The acetate/Hepes buffer contains 0.15 mol/l of sodium acetate, 0.15 mol/l of Hepes, 0.3 mol/l of sodium chloride and 0.001% Pluronic (Sigma, Deisenhofen, Germany) pH 6.5.
The enzyme solution contains 0.22 μg/ml of the enzyme domain.
The substrate solution contains 0.3 mmol/l of the fluorogenic substrate Boc-Ala-Gly-Pro-Arg-AMC (Bachem, Heidelberg, Germany).
(§8) Corresponding Ki values are obtained by applying the Cheng-Prusoff equation: Ki=Ki,app/(1+[S]/KM); where Ki,app=IC50
(§9) (Ki,app is the concentration of the competing substance which leads to 50% inhibition of the enzymatic activity at a substrate concentration [S])

[2] = biological target: catalytic domain of human Cathepsin S (Homo sapiens (Human), UniProt P25774); test: Enzymatic activity of the catalytic domain of human Cathepsin S (fluorogenic substrate Z-Val-Val-Arg-AMC)
Sequence of catalytic domain of human Cathepsin S (P25774 115-331): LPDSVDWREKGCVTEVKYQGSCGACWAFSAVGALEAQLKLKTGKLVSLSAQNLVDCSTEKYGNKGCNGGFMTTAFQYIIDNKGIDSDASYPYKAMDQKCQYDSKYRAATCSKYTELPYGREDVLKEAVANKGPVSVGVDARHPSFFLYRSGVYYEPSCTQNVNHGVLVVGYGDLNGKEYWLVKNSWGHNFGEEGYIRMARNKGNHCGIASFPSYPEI
Method: as §1
5 parts by volume of enzyme are incubated with 20 parts by volume of acetate buffer and 50 parts by volume of cysteine solution at 37° C. for 5 minutes. After the activation of the enzyme, it is diluted with the Tris/HCl buffer to a concentration of 0.65 μg/ml. To measure the enzyme activity, 10 μl of enzyme solution are incubated with 10 μl of a 3% (v/v) aqueous dimethyl sulfoxide solution (reaction 1) for 10 minutes. To measure the enzyme inhibitor activity, 10 μl of enzyme solution are incubated with 10 μl of a 3% (v/v) aqueous dimethyl sulfoxide solution which contains the enzyme inhibitor (reaction 2). Both in reaction 1 and in reaction 2, after addition of 10 μl of a 1.5% (v/v) aqueous dimethyl sulfoxide solution which contains 0.15 mmol/l of the substrate, the enzyme reaction is monitored by fluorescence spectroscopy (360 nm (excitation)/465 nm (emission)).
as §4, §5, §6
The acetate buffer contains 0.05 mol/l of sodium acetate, 0.1 mol/l of sodium chloride and 0.001% Pluronic (Sigma, Deisenhofen, Germany) pH 5.5.
The cysteine solution contains 0.3 mol/l of cysteine in water. The Tris/HCl buffer contains 0.1 mol/l of Tris/HCl, 0.04 mol/l of EDTA and 0.001% Pluronic pH=7.5. The enzyme solution contains 0.65 μg/ml of the enzyme domain.
The substrate solution contains 0.15 mmol/l of the fluorogenic substrate Z-Val-Val-Arg-AMC (Bachem, Heidelberg, Germany).
as §8, §9

[3] = biological target: catalytic domain of human Cathepsin B (Homo sapiens (Human), UniProt P07858); test: Enzymatic activity of the catalytic domain of human Cathepsin B (fluorogenic substrate Z-Arg-Arg-AMC)
Method: as §1
25 μg of enzyme are diluted with acetate buffer to a concentration of 12.5 μg/ml. 1 part by volume of enzyme is admixed with 20 parts by volume of cysteine solution and diluted with the acetate/Hepes buffer to a concentration of 0.11 μg/ml and incubated at 37° C. for 5 minutes.
as §2, §3, §4
The inhibitor action is calculated as the percentage inhibition by the following formula: inhibition=100−[(fluorescence increase/minute in reaction 2)/(fluorescence increase/minute in reaction 1)×100].
as §6
The acetate buffer contains 0.1 mol/l of sodium acetate, 0.1 mol/l of sodium chloride and 0.001% Pluronic (Sigma, Deisenhofen, Germany) pH 4.5.
as §7
The enzyme solution contains 0.11 μg/ml of the enzyme domain.
The substrate solution contains 0.3 mmol/l of the fluorogenic substrate […] (Bachem, Heidelberg, Germany).
as §8, §9

Sequence of catalytic domain of human Cathepsin K (P43235 115-329): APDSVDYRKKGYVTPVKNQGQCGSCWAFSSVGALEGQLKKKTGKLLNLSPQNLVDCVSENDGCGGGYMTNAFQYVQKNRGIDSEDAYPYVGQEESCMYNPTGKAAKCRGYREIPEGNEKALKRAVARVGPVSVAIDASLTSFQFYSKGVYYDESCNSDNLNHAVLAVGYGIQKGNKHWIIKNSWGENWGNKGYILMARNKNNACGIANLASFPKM

Compound	Ki [1]	Ki [2]	Ki [3]
CC(F)(F)C[C@H](NC(=O)N1CCC2(CC1)OCc1ccccc12)C(=O)NC1(C#N)CC1 [Example 78]	38 nM	19 nM	530 nM
CC(F)(F)C[C@H](NC(=O)N1CCC2(CC1)CCN(C1CC1)CC2)C(=O)NC1(C#N)CC1 [Example 56]	7.5 nM	7.2 nM	210 nM
CCCC(F)(F)C[C@H](NC(=O)N1CCC2(CC1)CCN(C1CC1)CC2)C(=O)NC1(C#N)CC1 [Example 94]	24 nM	2 nM	84 nM
CC(F)(F)C[C@H](NC(=O)N1CCOC12CCCCC2)C(=O)NC1(C#N)CC1 [Example 80]	36 nM	9 nM	3900 nM
CC(F)(F)C[C@H](NC(=O)N1CCC2(CC1)NCC(C)(C)CO2)C(=O)NC1(C#N)CC1 [Example 45]	21 nM	24 nM	1200 nM
CC(F)(F)C[C@H](NC(=O)N1CCC2(CC1)CC2)C(=O)NC1(C#N)CC1 [Example 63, N—[(S)-1-(1-cyanocyclopropylcarbamoyl)-3,3-difluorobutyl]-6-azaspiro[2.5]octane-6-carboxamide]	22 nM	5 nM	260 nM
N#CC1(NC(=O)[C@H](CC(F)(F)Cc2ccccc2)NC(=O)N2CCC3(CC2)CCN(C2CC2)CC3)CC1 [Example 97]	400 nM	1 nM	100 nM
CC(F)(F)C[C@H](NC(=O)N1CCC2(CC1)CC(=O)N(CC1CC1)C2)C(=O)NC1(C#N)CC1 [Example 88]	15 nM	9 nM	310 nM
CCCC(F)(F)C[C@H](NC(=O)N1CCC2(CC1)CCN(c1ccc(OC)cc1)C2)C(=O)NC1(C#N)CC1 [Example 91]	43 nM	2 nM	140 nM
N#CC1(NC(=O)[C@H](CC(F)(F)Cc2ccccc2)NC(=O)N2CCC3(CC2)CC3)CC1 [Example 70, N—[(S)-1-(1-cyanocyclopropylcarbamoyl)-3,3-difluoro-4-phenylbutyl]-6-azaspiro[2.5]octane-6-carboxamide]	910 nM	0.3 nM	110 nM
CC(C)C[C@H](NC(=O)C1CCC2(CC1)OCCO2)C(=O)NC1(C#N)CC1 [Example 35, N—[(S)-1-(1-cyanocyclopropylcarbamoyl)-3-methylbutyl]-1,4-dioxaspiro[4.5]decane-8-carboxamide]	31 nM	150 nM	> 7100 nM
CC(F)(F)C[C@H](NC(=O)N1CCC2(CC1)C(=O)NCN2c1ccccc1)C(=O)NC1(C#N)CC1 [Example 42]	32 nM	11 nM	4500 nM
N#CC1(NC(=O)C2(NC(=O)N3CCC4(CCCC4)CC3)CCCCC2)CC1 [Example 53]	4.5 nM	53 nM	1500 nM
CC(F)(F)C[C@H](NC(=O)N1CCC2(CCCc3ccccc32)C1)C(=O)NC1(C#N)CC1 (stereo partly drawn) [Example 79]	16 nM	9 nM	620 nM
CC(F)(F)C[C@H](NC(=O)N1CCC2(CC1)OCCO2)C(=O)NC1(C#N)CC1 [Example 37]	21 nM	13 nM	560 nM
CC(F)(F)C[C@H](NC(=O)N1CCC2(CCCCC2)CC1)C(=O)NC1(C#N)CC1 [Example 9, N—[(S)-1-(1-cyanocyclopropylcarbamoyl)-3,3-difluorobutyl]-3-azaspiro[5.5]undecane-3-carboxamide]	1.8 nM	3.2 nM	46 nM
CC(F)(F)C[C@H](NC(=O)N1CC2(CCN(C3CC3)CC2)C1)C(=O)NC1(C#N)CC1 [Example 83]	28 nM	8 nM	2300 nM
CC(F)(F)C[C@H](NC(=O)N1CCC2(CCCCC2)C1)C(=O)NC1(C#N)CC1 [Example 77]	20 nM	7 nM	220 nM
CC(F)(F)C[C@H](NC(=O)N1CCC2(CCCC2)CC1)C(=O)NC1(C#N)CC1 [Example 36]	3 nM	2 nM	44 nM
CC(F)(F)C[C@H](NS(=O)(=O)N1CCC2(CCCC2)CC1)C(=O)NC1(C#N)CC1 [Example 74, N-(1-Cyanocyclopropyl)-(S)-2-(8-azaspiro[4.5]decane-8-sulfonylamino)-4,4-difluoropentamide]	150 nM	16 nM	> 7100 nM
CC(F)(F)C[C@H](NC(=O)N1CCC2(CC1)CCN(Cc1ccccc1)C2=O)C(=O)NC1(C#N)CC1 [Example 49]	52 nM	16 nM	2200 nM
CC(F)(F)C[C@H](NC(=O)N1CCC2(CC1)CCC(C)(C)O2)C(=O)NC1(C#N)CC1 [Example 76]	47 nM	22 nM	930 nM
CCCC(F)(F)C[C@H](NC(=O)N1CCC2(CC1)CC2)C(=O)NC1(C#N)CC1 [Example 102]	33 nM	0.5 nM	62 nM
CN1CCC(C#N)(NC(=O)[C@H](CC(C)(F)F)NC(=O)N2CCC3(CC2)CC3)CC1 [Example 103]	84 nM	27 nM	99 nM
